Reference: ChEMBL document CHEMBL5523743, “Identification of Psychoplastogenic Tropanes Lacking Muscarinic Activity” (J Med Chem, 2024)
Calls of active or inactive are those of the source. The calls are words filed in the database; no cut-off is given here.

What was measured:
[1] = biological target: T1, Muscarinic acetylcholine receptor M1 (Homo sapiens) (UniProt P11229); assay: Antagonist activity at recombinant human M1 receptor expressed in CHO-K1 cells incubated for 15 mins in presence of acetylcholine by aequorin assay; type: functional, cell-based
T1 sequence (whole entry): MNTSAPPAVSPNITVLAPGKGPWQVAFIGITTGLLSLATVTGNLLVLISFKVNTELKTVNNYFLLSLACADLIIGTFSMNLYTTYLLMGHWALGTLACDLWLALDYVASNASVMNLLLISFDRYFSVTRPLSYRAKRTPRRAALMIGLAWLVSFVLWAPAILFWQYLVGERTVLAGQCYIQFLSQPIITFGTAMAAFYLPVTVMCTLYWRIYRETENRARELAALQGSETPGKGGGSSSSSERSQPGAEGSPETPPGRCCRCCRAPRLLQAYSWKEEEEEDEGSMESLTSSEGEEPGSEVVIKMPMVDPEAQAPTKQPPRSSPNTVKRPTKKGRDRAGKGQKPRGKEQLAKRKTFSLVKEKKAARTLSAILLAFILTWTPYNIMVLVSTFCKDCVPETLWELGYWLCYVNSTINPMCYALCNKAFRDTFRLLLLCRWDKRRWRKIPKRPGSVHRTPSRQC

Neuron [2] = assay: Neuroplasticity effect in Wistar rat brain cortical neuron assessed as increase in neurite outgrowth at 0.25 to 10 uM after 72 hrs; type: functional, cell-based; settings: dose 0.25-10 µM
Neuron [3] = assay: Neuroplasticity effect in Wistar rat brain cortical neuron assessed as increase in neurite outgrowth after 72 hrs; type: functional, cell-based; settings: dose 0.25-10 µM
[4] = biological target: Muscarinic acetylcholine receptor M3 (Homo sapiens) (UniProt P20309); assay: Agonist activity at recombinant human M3 receptor expressed in CHO-K1 cells incubated for 15 mins by aequorin assay; type: functional, cell-based
[5] = biological target: T2, 5-hydroxytryptamine receptor 2C (Homo sapiens) (UniProt P28335); assay: Agonist activity at recombinant human 5HT2CR expressed in CHO-K1 cells incubated for 60 mins by HTRF method; type: functional, cell-based
T2 sequence (whole entry): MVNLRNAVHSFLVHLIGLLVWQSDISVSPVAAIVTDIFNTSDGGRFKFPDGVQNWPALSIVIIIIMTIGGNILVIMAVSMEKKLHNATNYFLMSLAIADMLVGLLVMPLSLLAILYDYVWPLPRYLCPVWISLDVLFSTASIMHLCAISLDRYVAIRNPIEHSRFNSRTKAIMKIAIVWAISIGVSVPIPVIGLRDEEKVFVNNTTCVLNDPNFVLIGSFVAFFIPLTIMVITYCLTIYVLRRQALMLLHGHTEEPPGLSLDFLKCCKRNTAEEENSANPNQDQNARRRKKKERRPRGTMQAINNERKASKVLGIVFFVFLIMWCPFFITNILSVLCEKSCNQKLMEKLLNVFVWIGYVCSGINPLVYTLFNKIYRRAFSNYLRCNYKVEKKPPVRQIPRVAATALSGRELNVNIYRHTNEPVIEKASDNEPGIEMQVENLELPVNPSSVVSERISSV

[6] = biological target: 5-hydroxytryptamine receptor 2A (Homo sapiens) (UniProt P28223); assay: Displacement of [3H]-DOI from 5HT2AR (unknown origin) by Topcount scintillation counting method
[7] = biological target: T2, 5-hydroxytryptamine receptor 2C (Homo sapiens); assay: Displacement of [3H]-DOI from 5HT2CR (unknown origin) by Topcount scintillation counting method
[8] = biological target: T3, Muscarinic acetylcholine receptor M2 (Homo sapiens) (UniProt P08172); assay: Agonist activity at M2 receptor (unknown origin) by GTPgamma[35S] based Topcount scintillation counting method; type: functional
T3 sequence (whole entry): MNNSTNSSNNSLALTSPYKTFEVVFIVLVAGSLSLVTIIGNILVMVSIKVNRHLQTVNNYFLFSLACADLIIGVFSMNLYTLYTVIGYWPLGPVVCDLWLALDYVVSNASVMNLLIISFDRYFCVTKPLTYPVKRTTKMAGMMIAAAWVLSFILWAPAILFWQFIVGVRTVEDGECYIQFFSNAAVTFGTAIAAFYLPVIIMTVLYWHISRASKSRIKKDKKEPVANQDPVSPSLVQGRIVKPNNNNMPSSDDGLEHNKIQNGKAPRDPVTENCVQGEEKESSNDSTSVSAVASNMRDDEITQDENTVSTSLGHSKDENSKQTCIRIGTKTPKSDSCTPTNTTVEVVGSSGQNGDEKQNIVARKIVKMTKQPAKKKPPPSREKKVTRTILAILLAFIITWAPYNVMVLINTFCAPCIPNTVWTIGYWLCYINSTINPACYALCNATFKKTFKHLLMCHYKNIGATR

[9] = biological target: T4, Muscarinic acetylcholine receptor M4 (Homo sapiens) (UniProt P08173); assay: Agonist activity at M4 receptor (unknown origin) by GTPgamma[35S] based Topcount scintillation counting method; type: functional
T4 sequence (whole entry): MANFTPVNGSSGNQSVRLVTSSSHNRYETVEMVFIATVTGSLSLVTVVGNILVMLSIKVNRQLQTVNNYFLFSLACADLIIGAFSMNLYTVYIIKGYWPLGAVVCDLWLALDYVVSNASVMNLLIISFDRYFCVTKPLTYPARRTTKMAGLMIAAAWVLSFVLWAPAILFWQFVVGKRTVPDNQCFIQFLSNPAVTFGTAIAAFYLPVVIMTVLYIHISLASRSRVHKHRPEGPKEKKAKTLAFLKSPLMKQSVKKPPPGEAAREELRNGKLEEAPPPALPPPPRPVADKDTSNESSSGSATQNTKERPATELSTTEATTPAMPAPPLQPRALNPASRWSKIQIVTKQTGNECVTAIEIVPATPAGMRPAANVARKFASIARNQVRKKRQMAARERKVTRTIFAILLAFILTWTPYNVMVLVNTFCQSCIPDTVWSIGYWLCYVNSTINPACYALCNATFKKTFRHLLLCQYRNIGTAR

[10] = biological target: T1, Muscarinic acetylcholine receptor M1 (Homo sapiens); assay: Agonist activity at recombinant human M1 receptor expressed in CHO-K1 cells incubated for 15 mins by aequorin assay; type: functional, cell-based
[11] = biological target: 5-hydroxytryptamine receptor 2A (Homo sapiens) (UniProt P28223); assay: Agonist activity at recombinant human 5HT2AR expressed in CHO-K1 cells incubated for 60 mins by HTRF method; type: functional, cell-based
[12] = biological target: T5, Muscarinic acetylcholine receptor M5 (Homo sapiens) (UniProt P08912); assay: Agonist activity at recombinant human M5 receptor expressed in CHO-K1 cells incubated for 15 mins by aequorin assay; type: functional, cell-based
T5 sequence (whole entry): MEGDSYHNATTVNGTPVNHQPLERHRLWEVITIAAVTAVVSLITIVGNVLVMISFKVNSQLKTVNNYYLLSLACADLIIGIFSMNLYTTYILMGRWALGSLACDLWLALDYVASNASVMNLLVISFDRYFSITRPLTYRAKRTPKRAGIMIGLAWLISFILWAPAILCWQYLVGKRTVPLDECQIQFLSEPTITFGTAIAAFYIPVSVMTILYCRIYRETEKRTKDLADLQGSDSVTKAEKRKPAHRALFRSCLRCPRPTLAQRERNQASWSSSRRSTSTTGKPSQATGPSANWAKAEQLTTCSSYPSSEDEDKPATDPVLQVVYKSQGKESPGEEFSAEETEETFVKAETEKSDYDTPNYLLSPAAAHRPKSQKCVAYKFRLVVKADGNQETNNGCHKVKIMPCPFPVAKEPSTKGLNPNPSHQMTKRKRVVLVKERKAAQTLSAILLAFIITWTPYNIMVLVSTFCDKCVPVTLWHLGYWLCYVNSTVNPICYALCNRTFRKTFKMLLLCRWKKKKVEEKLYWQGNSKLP

Neuron [13] = assay: Cytotoxicity against Wistar rat brain cortical neurons assessed as decrease in average number of neurites per neuron at 0.25 to 10 uM; type: toxicity, cell-based; settings: dose 0.25-10 µM
Neuron [14] = assay: Cytotoxicity against Wistar rat brain cortical neurons assessed as neurite restriction; type: toxicity, cell-based; settings: dose 0.25-10 µM
[15] = biological target: T3, Muscarinic acetylcholine receptor M2 (Homo sapiens); assay: Antagonist activity at M2 receptor (unknown origin) incubated for 1 hr in presence of acetylcholine by GTPgamma[35S] based Topcount scintillation counting method; type: functional
[16] = biological target: T4, Muscarinic acetylcholine receptor M4 (Homo sapiens); assay: Displacement of [3H]-Scopolamine from M4 receptor (unknown origin) by Topcount scintillation counting method
[17] = biological target: T1, Muscarinic acetylcholine receptor M1 (Homo sapiens); assay: Displacement of [3H]-Scopolamine from M1 receptor (unknown origin) by Topcount scintillation counting method
[18] = biological target: 5-hydroxytryptamine receptor 2A (Homo sapiens) (UniProt P28223); assay: Antagonist activity at recombinant human 5HT2AR expressed in CHO-K1 cells incubated for 60 mins in presence of alpha-Me-5HT by HTRF method; type: functional, cell-based
[19] = biological target: T3, Muscarinic acetylcholine receptor M2 (Homo sapiens); assay: Displacement of [3H]-Scopolamine from M2 receptor (unknown origin) by Topcount scintillation counting method
[20] = biological target: Muscarinic acetylcholine receptor M3 (Homo sapiens) (UniProt P20309); assay: Antagonist activity at recombinant human M3 receptor expressed in CHO-K1 cells incubated for 15 mins in presence of acetylcholine by aequorin assay; type: functional, cell-based
[21] = biological target: T4, Muscarinic acetylcholine receptor M4 (Homo sapiens); assay: Antagonist activity at M4 receptor (unknown origin) incubated for 1 hr in presence of oxotremorine by GTPgamma[35S] based Topcount scintillation counting method; type: functional
[22] = biological target: T2, 5-hydroxytryptamine receptor 2C (Homo sapiens); assay: Antagonist activity at recombinant human 5HT2CR expressed in CHO-K1 cells incubated for 60 mins in presence of alpha-Me-5HT by HTRF method; type: functional, cell-based
[23] = biological target: T5, Muscarinic acetylcholine receptor M5 (Homo sapiens); assay: Displacement of [3H]-Scopolamine from M5 receptor (unknown origin) by Topcount scintillation counting method
[24] = biological target: Muscarinic acetylcholine receptor M3 (Homo sapiens) (UniProt P20309); assay: Displacement of [3H]-Scopolamine from M3 receptor (unknown origin) by Topcount scintillation counting method
[25] = biological target: T5, Muscarinic acetylcholine receptor M5 (Homo sapiens); assay: Antagonist activity at recombinant human M5 receptor expressed in CHO-K1 cells incubated for 15 mins in presence of acetylcholine by aequorin assay; type: functional, cell-based

Sequence of 5-hydroxytryptamine receptor 2A (Homo sapiens) (P28223 whole entry): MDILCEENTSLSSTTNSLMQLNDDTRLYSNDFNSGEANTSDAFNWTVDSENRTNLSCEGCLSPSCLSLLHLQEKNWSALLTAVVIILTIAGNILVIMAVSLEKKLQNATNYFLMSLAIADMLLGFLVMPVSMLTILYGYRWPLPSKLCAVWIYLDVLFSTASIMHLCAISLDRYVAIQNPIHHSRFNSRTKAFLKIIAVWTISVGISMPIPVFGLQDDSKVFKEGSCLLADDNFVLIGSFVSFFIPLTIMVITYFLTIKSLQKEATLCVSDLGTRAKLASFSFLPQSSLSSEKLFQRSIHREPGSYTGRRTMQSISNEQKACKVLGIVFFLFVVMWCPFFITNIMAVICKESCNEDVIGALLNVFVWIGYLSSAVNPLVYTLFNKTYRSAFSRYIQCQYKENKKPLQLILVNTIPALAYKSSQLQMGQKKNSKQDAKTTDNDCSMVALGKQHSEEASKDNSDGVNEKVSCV
Sequence of Muscarinic acetylcholine receptor M3 (Homo sapiens) (P20309 whole entry, looked up): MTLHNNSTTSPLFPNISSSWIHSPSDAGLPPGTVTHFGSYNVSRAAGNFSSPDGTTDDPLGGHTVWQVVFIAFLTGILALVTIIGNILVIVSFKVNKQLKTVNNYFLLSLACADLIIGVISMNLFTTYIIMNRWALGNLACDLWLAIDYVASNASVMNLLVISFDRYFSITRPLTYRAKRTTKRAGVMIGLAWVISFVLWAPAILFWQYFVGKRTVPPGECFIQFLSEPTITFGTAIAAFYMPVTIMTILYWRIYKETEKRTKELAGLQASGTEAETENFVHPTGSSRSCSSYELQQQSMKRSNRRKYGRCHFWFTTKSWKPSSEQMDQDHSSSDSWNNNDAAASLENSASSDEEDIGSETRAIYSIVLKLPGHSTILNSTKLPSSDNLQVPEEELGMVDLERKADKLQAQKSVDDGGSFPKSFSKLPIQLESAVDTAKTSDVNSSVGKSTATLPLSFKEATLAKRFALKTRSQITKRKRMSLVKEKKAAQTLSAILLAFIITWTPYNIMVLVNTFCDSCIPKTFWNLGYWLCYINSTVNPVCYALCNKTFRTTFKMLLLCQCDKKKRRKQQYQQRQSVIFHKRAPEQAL

## CN1[C@H]2C[C@@H](OC(=O)c3ccccc3)C[C@@H]1[C@@H](c1ccccc1)C2
[1]; filed as antagonist
  Activity: Active
Neuron [2]
  Activity: Active

## CN1[C@@H]2CCC[C@H]1[C@H]1[C@@H]2N1c1ccc2[nH]ccc2c1
Neuron [2]
  Activity: inactive

## CN1[C@@H]2CC[C@H]1C[C@H](OC(=O)c1ccccc1)C2
Neuron [2]
  Activity: inactive

## Fc1ccc(CCN2[C@@H]3CCC[C@H]2CC3)cc1
Neuron [2]
  Activity: Active

## O=C1C[C@H]2C[C@H](O)[C@@H](C1)N2CCc1c[nH]c2ccccc12
Neuron [2]
  Activity: Active

## COc1ccc2[nH]c3c(c2c1)[C@H]1CC[C@@H](C3)N1C
Neuron [2]
  Activity: inactive

## CN1[C@H]2C[C@H](O)C[C@@H]1[C@@H](c1ccccc1)C2
Neuron [2]
  Activity: inactive

## CN1[C@H]2C[C@@H](O)C[C@@H]1[C@@H](c1ccccc1)C2
Neuron [2]
  Activity: inactive

## CN1[C@H]2CCC[C@@H]1[C@@H](c1ccc(F)cc1)C2
Neuron [2]
  Activity: inactive

## COc1cccc(CCN2[C@@H]3CCC[C@H]2CC3)c1
Neuron [2]
  Activity: Active

## CN1[C@@H]2CC[C@H]1C[C@H](OC(=O)/C=C/c1ccccc1)C2
Neuron [3]
  Activity: Dose-Dependent Effect

## COc1ccccc1CCN1[C@@H]2CCC[C@H]1CC2
[4]; filed as agonist
  Activity: Active
[5]; filed as agonist
  Activity: Active
[6]; filed as agonist
  Activity: Active
[7]; filed as agonist
  Activity: Active
[8]; filed as agonist
  Activity: Active
[9]; filed as agonist
  Activity: Active
[10]; filed as agonist
  Activity: Active
[11]; filed as agonist
  Activity: Active
[12]; filed as agonist
  Activity: Active

## CN1[C@@H]2CCC[C@H]1[C@H]1[C@@H]2N1c1cccnc1
Neuron [2]
  Activity: inactive

## Fc1ccccc1CCN1[C@@H]2CCC[C@H]1CC2
Neuron [2]
  Activity: Active

## COc1ccccc1[C@H]1C[C@@H]2CCC[C@H]1N2C
Neuron [2]
  Activity: inactive

## COc1cccc([C@H]2C[C@@H]3CCC[C@H]2N3C)c1
[1]; filed as antagonist
  Activity: Active
Neuron [2]
  Activity: Active

## CN1[C@H]2C[C@H](OC(=O)c3ccccc3)C[C@@H]1[C@@H](c1ccccc1)C2
[1]; filed as antagonist
  Activity: Active
Neuron [2]
  Activity: inactive

## COc1ccc(CCN2[C@@H]3CCC[C@H]2CC3)cc1
Neuron [13]
  Activity: Toxic
Neuron [2]
  Activity: inactive

## CN1[C@@H]2CCC[C@H]1[C@H]1[C@@H]2N1c1ccccc1
Neuron [2]
  Activity: inactive

## CN1[C@H]2CCC[C@@H]1[C@@H](c1ccccc1F)C2
Neuron [13]
  Activity: Toxic
Neuron [2]
  Activity: inactive

## COc1ccc([C@H]2C[C@@H]3CCC[C@H]2N3C)cc1
Neuron [13]
  Activity: Toxic
Neuron [2]
  Activity: inactive

## c1ccc(CCN2[C@@H]3CCC[C@H]2CC3)cc1
Neuron [2]
  Activity: Active

## CN1[C@H]2CCC[C@@H]1[C@@H](c1ccccc1)C2
Neuron [2]
  Activity: inactive

## CN1[C@@H]2CCC[C@H]1[C@H]1[C@@H]2N1c1cccc2[nH]ccc12
Neuron [2]
  Activity: inactive
Neuron [14]
  Activity: Dose-Dependent Effect

## COc1ccc(CN2[C@H]3CC(=O)C[C@@H]2[C@@H](O)C3)cc1
[4]
  Activity: inactive
[15]
  Activity: inactive
[1]
  Activity: inactive
[5]
  Activity: inactive
[6]
  Activity: inactive
[7]
  Activity: inactive
[16]
  Activity: inactive
[8]
  Activity: inactive
[17]
  Activity: inactive
[9]
  Activity: inactive
[10]
  Activity: inactive
[18]
  Activity: inactive
[19]
  Activity: inactive
[11]
  Activity: inactive
[20]
  Activity: inactive
[21]
  Activity: inactive
[22]
  Activity: inactive
[12]
  Activity: inactive
Neuron [2]
  Activity: Active
[23]
  Activity: inactive
[24]
  Activity: inactive
[25]
  Activity: inactive

## CN1[C@H]2CCC[C@@H]1[C@@H](c1cccc(F)c1)C2
[1]; filed as antagonist
  Activity: Active
Neuron [2]
  Activity: Active

## CN1[C@H]2CC[C@@H]1C=C(c1c[nH]c3ccccc13)C2
[22]; filed as antagonist
  Activity: Active
Neuron [2]
  Activity: inactive
